Source: patent publication US20260317356A1, “SMALL MOLECULE MODULATORS OF OGG1” (AZKARRA THERAPEUTICS, INC., priority 2023, published 2026)

How the values were obtained:
[1] = target: hOGG1 (Homo sapiens, UniProt O15527); test: Biochemical fluorescence assay to measure enzymatic activity of hOGG1 (OGG1/APEX IC50); set-up: Protein His-hOGG1 (12-323) was prepared; His (N); host or cells: E. coli; conditions: 1 nM OGG1+2 nM APEX+6 nM dsDNA (8-oxo-dG substrate); pH 7.5; RT 40 min; read-out: OGG1/APEX IC50
hOGG1, sequence (O15527 12-323): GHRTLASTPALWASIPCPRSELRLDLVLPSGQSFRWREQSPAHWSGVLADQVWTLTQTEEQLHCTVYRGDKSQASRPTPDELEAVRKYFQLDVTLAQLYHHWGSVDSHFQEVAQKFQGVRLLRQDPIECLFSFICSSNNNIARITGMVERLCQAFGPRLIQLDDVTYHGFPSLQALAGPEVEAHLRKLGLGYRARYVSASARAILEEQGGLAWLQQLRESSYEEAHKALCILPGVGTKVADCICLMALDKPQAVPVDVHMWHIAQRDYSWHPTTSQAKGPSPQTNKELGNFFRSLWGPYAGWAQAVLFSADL
Method in brief: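 Coupled glycosylase/AP-endonuclease read-out: 8-oxo-dG-containing dsDNA (6 nM) cleaved by 1 nM His-hOGG1 (12-323) plus 2 nM APEX1 over 40 min at room temperature, after 20 min enzyme–compound preincubation; buffer 20 mM Tris pH 7.5, 100 mM KCl, 0.1% BSA, 0.01% Tween. IC50 comes from sigmoidal 3-parameter fitting of % inhibition derived from TAMRA signal.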

[2] = target: T1, nLucOGG1 in HeLa cells (Homo sapiens, UniProt O15527); test: Cellular Thermal Shift Assay to measure compound affinity for nLucOGG1 in HeLa cells (CETSA DTm); type: cell-based; conditions: 10 μM compound, 37° C. 60 min, Tm vs DMSO control
T1 construct: thermal shift read by NanoGlo luminescence
T1 sequence (O15527 whole entry): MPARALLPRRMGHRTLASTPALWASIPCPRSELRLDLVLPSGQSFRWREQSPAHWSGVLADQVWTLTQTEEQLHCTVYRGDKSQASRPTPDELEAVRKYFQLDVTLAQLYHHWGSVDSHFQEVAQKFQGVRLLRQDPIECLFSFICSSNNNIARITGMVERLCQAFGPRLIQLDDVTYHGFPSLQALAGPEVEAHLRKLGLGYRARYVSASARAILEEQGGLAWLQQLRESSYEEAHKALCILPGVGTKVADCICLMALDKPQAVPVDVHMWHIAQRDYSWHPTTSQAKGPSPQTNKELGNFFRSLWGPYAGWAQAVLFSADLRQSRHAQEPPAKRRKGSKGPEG
Protocol: Biological Example 2: Cellular Thermal Shift Assay to Measure Compound Affinity for ^nLucOGG1 in HeLa Cells (CETSA DTm)
Cell Culture and Transfection of Hela Cells with ^nLucOGG1: For all tests, Hela cells were maintained in growth medium, Dulbecco's Minimum Eagle Medium (Multicell: Cat #319-005-CL) supplemented with 10% heat-inactivated fetal bovine serum (Gibco: Cat #12484-028) at 37° C. and 5% CO2 in a humidified tissue culture incubator. Transient transfections were performed using the Lonza 4-D Nucleofector X unit according to the manufacturer's protocol (Lonza Cat #V4XC-1024). Briefly, for each transfection, 1.2×10^6 cells were centrifuged at 1000 RPM for 5 minutes at room temperature before being diluted in 100 μL SE solution containing 18% v/v supplement and 1.5 μg pNF1-N-empty or pNF1-N-OGG1a vector. The total volume was transferred to a 100 μL nucleofection cuvette prior to transfer to the apparatus where HeLa cell nucleofection protocol CN-114 was executed. Following nucleofection, 500 μL complete media was added to the cells in the cuvette before transferring to a 6-well dish containing 1.5 mL of complete media. Cells were left to incubate for 48 hours before performing all cellular thermal shift experiments.
Cellular Thermal Shift Assays for Target Engagement (CETSA): Forty-eight hours following nucleofection, cells were washed once with DPBS−/−(Multicell: Cat #311-425-CL) and lifted with 0.25% Trypsin-EDTA (Multicell: Cat #325-043-CL) prior to dilution in growth medium and centrifugation at 1000 RPM for 5 minutes at room temperature. The resulting cell pellet was then resuspended in growth medium, cells were counted and the volume adjusted to 500 k cells/mL (2×).
For delta Tm determination, OGG1 inhibitor compounds were dissolved in DMSO to a final working concentration of 20 mM. Working solutions were then diluted in complete media to 20 μM or 0.1% DMSO for the vehicle control (2×). 2×OGG1 inhibitor compound solutions or 0.1% DMSO control were then pre-dispensed into MicroAmp Optical 96-well PCR reaction plates (Applied Biosystems: Cat #4346906) at 50 μL/well. Next, 50 μL or 25 k cells/well from the 2× cell suspension was added to the pre-loaded PCR plates. All plates were prepared as duplicates, covered with adhesive plate sealers (Perkin Elmer: Cat #6050185) and left to incubate at 37° C. for 60 minutes. During incubation, sufficient NanoGlo luciferase assay reagents (Promega: Cat #N1120) were left to equilibrate to room temperature in the dark. Immediately before heating the plates, the NanoGlo substrate was mixed with the NanoGlo buffer at a 1:50 ratio. The thermal cycler (Veriti 96-Well Thermal Cycler, Thermo Fisher Scientific) was allowed to reach the designated temperature prior to placement of the PCR plate into the heating block. For Tm determination experiments, duplicate plates containing a fixed concentration of test compound (10 μM final) as well as vehicle control were prepared to perform a 12-point temperature gradient spanning 37-70° C. for 3 minutes. Therefore, two thermal cycler protocols were set up covering two 6-step temperature gradients ranging from 37-52° C. and 52-70° C. Plates were then allowed to cool at room temperature for 5 minutes after the heat treatment followed by transfer of 75 μL of the reaction into a 96-well white polystyrene microplate (Corning: Cat #CLS3903) and addition of 75 μL of the prepared NanoGlo mixture. Microplates were then left to shake in the dark for 5 minutes before total luminescence was measured on a SpectraMax IX3 plate reader. The luminescence value obtained at each temperature was normalized to the luminescence obtained at 37° C. and the ratio obtained was plotted against the temperature. A Boltzman Sigmoidal non-linear regression was applied to the resulting data to determine Tm values and the difference between the Tm value for a given OGG1 inhibitor relative to the DMSO vehicle control was the delta Tm.

IC50 [1] [nM]	ΔTm at 10 µM [2] [°C]	Structure (SMILES)
100 to 1000	6 to 8	COc1cc(NC(=O)[C@H]2CC[C@@H](N3Cc4ccccc4NC3=O)CC2)ccc1C [Example 67, (1s,4s)-N-(3-methoxy-4-methylphenyl)-4-(2-oxo-1,2-dihydroquinazolin-3(4H)-yl)cyclohexanecarboxamide]
< 100	8 to 10	COc1cc(NC(=O)[C@H]2CC[C@@H](N3Cc4c(C)cc(N5CC6(COC6)C5)cc4NC3=O)CC2)ccc1C [Example 30, (1s,4s)-N-(3-Methoxy-4-methylphenyl)-4-(5-methyl-2-oxo-7-(2-oxa-6-azaspiro[3.3]heptan-6-yl)-1,2-dihydroquinazolin-3(4H)-yl)cyclohexanecarboxamide]
100 to 1000	6 to 8	COc1cc(NC(=O)[C@H]2CC[C@@H](N3Cc4c(C)ccc(N5CC6(COC6)C5)c4NC3=O)CC2)ccc1C [Example 35, (1s,4s)-N-(3-Methoxy-4-methylphenyl)-4-(5-methyl-2-oxo-8-(2-oxa-6-azaspiro[3.3]heptan-6-yl)-1,2-dihydroquinazolin-3(4H)-yl)cyclohexanecarboxamide]
< 100	6 to 8	COc1cc(NC(=O)[C@H]2CC[C@@H](N3Cc4c(C)ccc(C#N)c4C3=O)CC2)ccc1C [Example 143, (1s,4s)-4-(7-Cyano-4-methyl-1-oxoisoindolin-2-yl)-N-(3-methoxy-4-methylphenyl)cyclohexanecarboxamide]
< 100	6 to 8	COc1cc(NC(=O)[C@H]2CC[C@@H](N3Cc4c(C)cc(N(C)C)cc4C3=O)CC2)ccc1C [Example 135, (1s,4s)-4-(6-(Dimethylamino)-4-methyl-1-oxoisoindolin-2-yl)-N-(3-methoxy-4-methylphenyl)cyclohexane-1-carboxamide]
100 to 1000	6 to 8	COc1ccc(NC(=O)[C@H]2CC[C@@H](N3Cc4c(C)ccc(OC)c4NC3=O)CC2)cc1C#N [Example 2, (1s,4s)-N-(3-Cyano-4-methoxyphenyl)-4-(8-methoxy-5-methyl-2-oxo-1,2-dihydroquinazolin-3(4H)-yl)cyclohexanecarboxamide]
< 100	8 to 10	COc1cc(NC(=O)[C@H]2CC[C@@H](N3Cc4c(C)cnc(CNC(C)=O)c4NC3=O)CC2)ccc1C [Example 19, (1s,4s)-4-(8-(Acetamidomethyl)-5-methyl-2-oxo-1,2-dihydropyrido[3,4-d]pyrimidin-3(4H)-yl)-N-(3-methoxy-4-methylphenyl)cyclohexanecarboxamide]
< 100	8 to 10	COc1cc(NC(=O)[C@H]2CC[C@@H](N3Cc4c(C)ccc(OC5CNC5)c4NC3=O)CC2)ccc1C [Example 45]
< 100	8 to 10	COc1ccc(NC(=O)[C@H]2CC[C@@H](N3Cc4c(C)ccnc4NC3=O)CC2)cc1C [Example 16, (1s,4s)-N-(4-Methoxy-3-methylphenyl)-4-(5-methyl-2-oxo-1,2-dihydropyrido[2,3-d]pyrimidin-3(4H)-yl)cyclohexanecarboxamide]
< 100	> 10	COc1ccc(NC(=O)[C@H]2CC[C@@H](N3Cc4c(C)cc(NCCN(C)C)cc4C3=O)CC2)cc1Cl [Example 260, (1s,4s)-N-(3-Chloro-4-methoxyphenyl)-4-(6-(2-(dimethylamino)ethylamino)-4-methyl-1-oxoisoindolin-2-yl)cyclohexanecarboxamide]
< 100	8 to 10	COc1ccc(NC(=O)[C@]2(C)CC[C@H](N3Cc4c(C)cccc4NC3=O)CC2)cc1Cl (single isomer, unassigned) [Example 103, (1s,4s)-N-(3-chloro-4-methoxyphenyl)-1-methyl-4-(5-methyl-2-oxo-1,2-dihydroquinazolin-3(4H)-yl)cyclohexanecarboxamide]
< 100	8 to 10	COc1ccc(NC(=O)[C@H]2CC[C@@H](N3Cc4c(C)cc(NCCN(C)C)cc4NC3=O)CC2)cc1C#N [Example 99, (1s,4s)-N-(3-cyano-4-methoxyphenyl)-4-(7-(2-(dimethylamino)ethylamino)-5-methyl-2-oxo-1,2-dihydroquinazolin-3(4H)-yl)cyclohexanecarboxamide]
100 to 1000	8 to 10	COc1cc(NC(=O)[C@]2(C)CC[C@H](N3Cc4c(C)ccc(OC)c4NC3=O)CC2)ccc1C [Example 13, (1s,4s)-N-(3-Methoxy-4-methylphenyl)-4-(8-methoxy-5-methyl-2-oxo-1,2-dihydroquinazolin-3(4H)-yl)-1-methylcyclohexanecarboxamide]
< 100	6 to 8	COc1cc(NC(=O)[C@H]2CC[C@@H](N3Cc4c(C)ccc(OC)c4NC3=O)CC2)ccc1C [Example 47, (1s,4s)-N-(3-Methoxy-4-methylphenyl)-4-(8-methoxy-5-methyl-2-oxo-1,2-dihydroquinazolin-3(4H)-yl)cyclohexanecarboxamide]
< 100	6 to 8	COc1cc(NC(=O)[C@H]2CC[C@@H](N3Cc4c(C)ccnc4NC3=O)CC2)ccc1C [Example 41, (1s,4s)-N-(3-Methoxy-4-methylphenyl)-4-(5-methyl-2-oxo-1,2-dihydropyrido[2,3-d]pyrimidin-3(4H)-yl)cyclohexanecarboxamide]
100 to 1000	6 to 8	COc1ccc(NC(=O)[C@H]2CC[C@@H](N3Cc4c(C)cccc4C3=O)CC2)cc1C#N [Example 239, (1s,4s)-N-(3-Cyano-4-methoxyphenyl)-4-(4-methyl-1-oxoisoindolin-2-yl)cyclohexanecarboxamide]
100 to 1000	6 to 8	COc1ccc(NC(=O)[C@H]2CC[C@@H](N3Cc4c(C)ccc(OC)c4NC3=O)CC2)cc1C [Example 4, (1s,4s)-N-(3-Methyl-4-methoxyphenyl)-4-(8-methoxy-5-methyl-2-oxo-1,2-dihydroquinazolin-3(4H)-yl)cyclohexanecarboxamide]
< 100	8 to 10	COc1ccc(NC(=O)[C@]2(C)CC[C@H](N3Cc4c(C)ccc(OC)c4NC3=O)CC2)cc1C (single isomer, unassigned) [Example 11, (1s,4s)-N-(3-methyl-4-methoxyphenyl)-4-(8-methoxy-5-methyl-2-oxo-1,2-dihydroquinazolin-3(4H)-yl)-1-methylcyclohexanecarboxamide]
< 100	8 to 10	COc1ccc(NC(=O)[C@]2(C)CC[C@H](N3Cc4c(C)ccc(OC)c4NC3=O)CC2)cc1C#N (single isomer, unassigned) [Example 9, (1s,4s)-N-(3-cyano-4-methoxyphenyl)-4-(8-methoxy-5-methyl-2-oxo-1,2-dihydroquinazolin-3(4H)-yl)-1-methylcyclohexanecarboxamide]
